Reference: ChEMBL document CHEMBL1201862, “PubChem BioAssay data set” (2004)
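In this assay, cells in 96-well plates receive the compound at five concentrations for 48 hours. Endpoints are linearly interpolated between the surrounding concentrations. GI50 = concentration required for 50% inhibition of growth.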 Calls of active or inactive are those of the source. Rule as the data show it: active = GI50 up to about 1.1 µM and inactive = higher.

Key:
Assay in all cases: DTP human tumour cell line panel, 48 h
M14 = system: M14
OVCAR-8 = system: OVCAR-8
HOP-62 = system: HOP-62
SK-MEL-28 = system: SK-MEL-28
OVCAR-5 = system: OVCAR-5
A549 = system: A549
T47D = system: T47D
NCI-H226 = system: NCI-H226
MDA-MB-231 = system: MDA-MB-231
SK-MEL-2 = system: SK-MEL-2
OVCAR-3 = system: OVCAR-3
RPMI-8226 = system: RPMI-8226
SF-268 = system: SF-268
SK-OV-3 = system: SK-OV-3
SK-MEL-5 = system: SK-MEL-5
CAKI-1 = system: CAKI-1
786-0 = system: 786-0
HOP-92 = system: HOP-92
HCC 2998 = system: HCC 2998
SF-539 = system: SF-539
HCT-15 = system: HCT-15
EKVX = system: EKVX
MOLT-4 = system: MOLT-4
HCT-116 = system: HCT-116
SN12C = system: SN12C
OVCAR-4 = system: OVCAR-4
U-251 = system: U-251
SW-620 = system: SW-620
IGROV-1 = system: IGROV-1
BT-549 = system: BT-549
Hs-578T = system: Hs-578T
A498 = system: A498
MDA-MB-435 = system: MDA-MB-435
COLO 205 = system: COLO 205
UACC-257 = system: UACC-257
UO-31 = system: UO-31
NCI/ADR-RES = system: NCI/ADR-RES
PC-3 = system: PC-3
CCRF-CEM = system: CCRF-CEM
DU-145 = system: DU-145
LOX IMVI = system: LOX IMVI
SF-295 = system: SF-295
NCI-H522 = system: NCI-H522
NCI-H460 = system: NCI-H460
NCI-H23 = system: NCI-H23
Malme-3M = system: Malme-3M
HT-29 = system: HT-29
KM12 = system: KM12
MCF7 = system: MCF7
ACHN = system: ACHN
UACC-62 = system: UACC-62
K562 = system: K562
SNB-75 = system: SNB-75
TK-10 = system: TK-10
SNB-19 = system: SNB-19
HL-60 = system: HL-60
SR = system: SR
RXF 393 = system: RXF 393

**Q.** What does the source list for `ClCCN(CCCl)c1ccc(/C=N/Nc2ccnc3ccccc23)cc1`?
**A.** GI50 (M14): 2.02 µM (inactive); GI50 (OVCAR-8): 1.41 µM (inactive); GI50 (HOP-62): 2.07 µM (inactive); GI50 (SK-MEL-28): 1.63 µM (inactive); GI50 (OVCAR-5): 1.5 µM (inactive); GI50 (A549): 1.63 µM (inactive); GI50 (T47D): 1.76 µM (inactive); GI50 (NCI-H226): 1.89 µM (inactive); GI50 (MDA-MB-231): 1.89 µM (inactive); GI50 (SK-MEL-2): 2 µM (inactive); GI50 (OVCAR-3): 1.88 µM (inactive); GI50 (RPMI-8226): 1.32 µM (inactive); GI50 (SF-268): 2.65 µM (inactive); GI50 (SK-OV-3): 1.58 µM (inactive); GI50 (SK-MEL-5): 1.66 µM (inactive); GI50 (CAKI-1): 2.18 µM (inactive); GI50 (786-0): 1.78 µM (inactive); GI50 (HOP-92): 1.64 µM (inactive); GI50 (HCC 2998): 3.26 µM (inactive); GI50 (SF-539): 1.41 µM (inactive); GI50 (HCT-15): 1.35 µM; GI50 (EKVX): 2.39 µM (inactive); GI50 (MOLT-4): 1.13 µM (inactive); GI50 (HCT-116): 1.21 µM (inactive); GI50 (SN12C): 1.65 µM (inactive); GI50 (OVCAR-4): 1.85 µM (inactive); GI50 (U-251): 1.48 µM (inactive); GI50 (SW-620): 1.87 µM (inactive); GI50 (IGROV-1): 1.65 µM (inactive); GI50 (BT-549): 2 µM (inactive); GI50 (Hs-578T): 2.23 µM (inactive); GI50 (A498): 20.3 µM (inactive); GI50 (MDA-MB-435): 1.53 µM (inactive); GI50 (COLO 205): 1.86 µM (inactive); GI50 (UACC-257): 1.84 µM (inactive); GI50 (UO-31): 1.86 µM (inactive); GI50 (NCI/ADR-RES): 1.9 µM (inactive); GI50 (PC-3): 1.45 µM (inactive); GI50 (CCRF-CEM): 1.49 µM (inactive); GI50 (DU-145): 1.8 µM (inactive); GI50 (LOX IMVI): 1.44 µM (inactive); GI50 (SF-295): 1.31 µM (inactive); GI50 (NCI-H522): 1.83 µM (inactive); GI50 (NCI-H460): 2.73 µM (inactive); GI50 (NCI-H23): 2.01 µM (inactive); GI50 (Malme-3M): 1.49 µM (inactive); GI50 (HT-29): 0.736 µM (active); GI50 (KM12): 1.58 µM (inactive); GI50 (MCF7): 3.03 µM (inactive); GI50 (ACHN): 1.84 µM (inactive); GI50 (UACC-62): 1.75 µM (inactive); GI50 (K562): 1.39 µM (inactive); GI50 (SNB-75): 2.17 µM (inactive); GI50 (TK-10): 1.52 µM (inactive); GI50 (SNB-19): 2.33 µM (inactive)

**Q.** What does the source list for `Cc1ccc(-c2n[nH]c(CC#N)n2)cc1`?
**A.** GI50 (M14): > 100 µM (inactive); GI50 (OVCAR-8): > 100 µM (inactive); GI50 (HOP-62): > 100 µM (inactive); GI50 (SK-MEL-28): > 100 µM (inactive); GI50 (OVCAR-5): > 100 µM (inactive); GI50 (A549): > 100 µM (inactive); GI50 (T47D): > 100 µM (inactive); GI50 (SK-MEL-2): > 100 µM (inactive); GI50 (OVCAR-3): > 100 µM (inactive); GI50 (SF-268): > 100 µM (inactive); GI50 (SK-OV-3): > 100 µM (inactive); GI50 (SK-MEL-5): > 100 µM (inactive); GI50 (CAKI-1): > 100 µM (inactive); GI50 (786-0): > 100 µM (inactive); GI50 (HOP-92): > 100 µM (inactive); GI50 (HCC 2998): > 100 µM (inactive); GI50 (SF-539): > 100 µM (inactive); GI50 (HCT-15): 66.1 µM; GI50 (EKVX): 8.57 µM (inactive); GI50 (MOLT-4): > 100 µM (inactive); GI50 (HCT-116): > 100 µM (inactive); GI50 (SN12C): > 100 µM (inactive); GI50 (OVCAR-4): > 100 µM (inactive); GI50 (U-251): > 100 µM (inactive); GI50 (SW-620): > 100 µM (inactive); GI50 (IGROV-1): > 100 µM (inactive); GI50 (BT-549): > 100 µM (inactive); GI50 (Hs-578T): 39.7 µM (inactive); GI50 (A498): > 100 µM (inactive); GI50 (MDA-MB-435): > 100 µM (inactive); GI50 (COLO 205): > 100 µM (inactive); GI50 (UACC-257): > 100 µM (inactive); GI50 (UO-31): > 100 µM (inactive); GI50 (NCI/ADR-RES): > 100 µM (inactive); GI50 (PC-3): > 100 µM (inactive); GI50 (CCRF-CEM): > 100 µM (inactive); GI50 (DU-145): > 100 µM (inactive); GI50 (LOX IMVI): > 100 µM (inactive); GI50 (HL-60): > 100 µM (inactive); GI50 (SF-295): > 100 µM (inactive); GI50 (NCI-H522): > 100 µM (inactive); GI50 (SR): > 100 µM (inactive); GI50 (NCI-H460): > 100 µM (inactive); GI50 (NCI-H23): > 100 µM (inactive); GI50 (Malme-3M): > 100 µM (inactive); GI50 (HT-29): > 100 µM (inactive); GI50 (KM12): > 100 µM (inactive); GI50 (MCF7): > 100 µM (inactive); GI50 (ACHN): > 100 µM (inactive); GI50 (UACC-62): > 100 µM (inactive); GI50 (K562): > 100 µM (inactive); GI50 (RXF 393): > 100 µM (inactive); GI50 (SNB-75): > 100 µM (inactive); GI50 (TK-10): > 100 µM (inactive); GI50 (SNB-19): 0.608 µM (active)
